Data taken from US20150290232A1, “DRUG COMPOSITION FOR TREATING TUMORS AND APPLICATION THEREOF” (priority 2012, published 2015).

How the values were obtained:
Type in all cases: cell-based
[1] = system: Jurkat cells (acute lymphoblastic leukemia); assay: MTT cell viability, leukemia cells, TTD and Acla A alone and combined; conditions: Homo sapiens, 72 h
Method: (§1) Well-growing leukemia cells were obtained and inoculated into wells of a 96-well cell culture plate at 5000 cells/well. Individual compounds of various concentrations were added, mixed uniformly, and incubated (5% CO2) at 37° C. for 72 hours. Then the cell viability was determined by the MTT method.
(§2) b) Determine the inhibitory effects of TTD in combination with Ada A on leukemia cells in vitro. The pretreatment of the cells was the same as in a). The control group was not treated with the compound while administered. […] After 72 hours of incubation, the MTT method was used for the determination of cell viability. The cell viability of the control group was set to 100% in this experiment, and the TTD, Ada A single drug and combined effects on cell viability (%) were calculated.

[2] = system: k562/ADR leukemia cells (drug-resistant chronic myeloid leukemia); assay: as above; conditions: Homo sapiens, K562/Adr, 72 h
Method: as §1, §2

[3] = system: kasumi-1 cells (acute myeloid leukemia M2 type); assay: as above; conditions: Homo sapiens, Kasumi 1, 72 h
Method: as §1, §2

[4] = system: RPMI 8226 (multiple myeloma); assay: MTT cell viability, lymphoma and myeloma cells; conditions: Homo sapiens, RPMI-8226, 72 h
Method: (§3) Well-growing cells of above were obtained and inoculated into wells of a 96-well cell culture plate at 5000 cells/well. Separate compounds of various concentrations were added, mixed uniformly, and incubated (5% CO2) at 37° C. for 72 hours. Then the cell viability was determined by the MTT method.
(§4) b) Determine the inhibitory effects of TTD in combination with Ada A on the above cells. The pretreatment of the cells was the same as in a). The control group was not treated with the compound while administered. […] As to the combination group, two compounds were added together into the same group of wells, with the fmal concentrations being the concentrations to which the IC50 values of the two single drugs correspond. After 72 hours of incubation, the MTT method was used for the determination of cell viability. The cell viability of the control group was set to 100% in this experiment, and the TTD, Ada A single drug and combined effects on cell viability (%) were calculated.

[5] = system: Raji (human Burkitt lymphoma cells); assay: MTT cell viability, lymphoma and myeloma cells; conditions: 72 h
Method: as §3, §4

[6] = system: CaES-17 (esophageal cancer cell); assay: MTT cell viability, human solid tumor cells; conditions: CaEs17, 72 h
Method: (§5) Well-growing cells of above were obtained and inoculated into wells of a 96-well cell culture plate at 5000 cells/well. Individual compounds of various concentrations were added, mixed uniformly, and incubated (5% CO2) at 37° C. for 72 hours. Then the cell viability was determined by the MTT method.
b) Determine the inhibitory effects of TTD in combination with Ada A on the human solid tumor cells. The pretreatment of the cells was the same as in a). The control group was not treated with the compound while administered. The two single-drug groups were added with respective active component to the concentration under which the IC50 of two compounds in a) achieve. As to the combination group, two compounds were added together into the same group of wells, with the fmal concentration being the concentration to which the IC50 of the single drugs correspond. After 72 hours of incubation, the MTT method was used for the determination of cell viability. The cell viability of the control group was set to 100% in this experiment, and the TTD, Ada A single drug and combined effects on cell viability (%) were calculated.

[7] = system: A549 (human lung cancer); assay: MTT cell viability, human solid tumor cells; conditions: A549, 72 h
Method: as §5
as §4, with “human solid tumor” for “above”, “concentration” for “concentrations”, “IC50” for “IC50 values”, “the” for “the two”

[8] = system: CNE (nasopharyngeal carcinoma cell); assay: MTT cell viability, human solid tumor cells; conditions: 72 h
Method: as §5
as §4, with “human solid tumor” for “above”, “concentration” for “concentrations”, “IC50” for “IC50 values”, “the” for “the two”

[9] = system: Hep G2 (human hepatoma carcinoma cell); assay: MTT cell viability, human solid tumor cells; conditions: HepG2, 72 h
Method: as §5
as §4, with “human solid tumor” for “above”, “concentration” for “concentrations”, “IC50” for “IC50 values”, “the” for “the two”

[10] = system: Hep2 (laryngeal carcinoma); assay: MTT cell viability, human solid tumor cells; conditions: HEp-2, 72 h
Method: as §5
as §4, with “human solid tumor” for “above”, “concentration” for “concentrations”, “IC50” for “IC50 values”, “the” for “the two”

[11] = system: MG63 (osteosarcoma); assay: MTT cell viability, human solid tumor cells; conditions: MG-63, 72 h
Method: as §5
as §4, with “human solid tumor” for “above”, “concentration” for “concentrations”, “IC50” for “IC50 values”, “the” for “the two”

[12] = system: MGC-803 (human gastric cancer cell); assay: MTT cell viability, human solid tumor cells; conditions: MGC-803, 72 h
Method: as §5
as §4, with “human solid tumor” for “above”, “concentration” for “concentrations”, “IC50” for “IC50 values”, “the” for “the two”

[13] = system: PC-3 (prostate cancer); assay: MTT cell viability, human solid tumor cells; conditions: 72 h
Method: as §5
as §4, with “human solid tumor” for “above”, “concentration” for “concentrations”, “IC50” for “IC50 values”, “the” for “the two”

[14] = system: Panc-1 (pancreatic cancer); assay: MTT cell viability, human solid tumor cells; conditions: PANC-1, 72 h
Method: as §5
as §4, with “human solid tumor” for “above”, “concentration” for “concentrations”, “IC50” for “IC50 values”, “the” for “the two”

[15] = system: SK-OV-3 (ovarian cancer cell); assay: MTT cell viability, human solid tumor cells; conditions: SK-OV-3, 72 h
Method: as §5
as §4, with “human solid tumor” for “above”, “concentration” for “concentrations”, “IC50” for “IC50 values”, “the” for “the two”

[16] = system: SPC-A-1 (human lung adenocarcinoma cell); assay: MTT cell viability, human solid tumor cells; conditions: SPCA1, 72 h
Method: as §5
as §4, with “human solid tumor” for “above”, “concentration” for “concentrations”, “IC50” for “IC50 values”, “the” for “the two”

[17] = system: U87-MG (malignant glioma cell); assay: MTT cell viability, human solid tumor cells; conditions: U-87 MG, 72 h
Method: as §5
as §4, with “human solid tumor” for “above”, “concentration” for “concentrations”, “IC50” for “IC50 values”, “the” for “the two”

[18] = read-out: concentration (IC50 value of 72 hours)

`CC[C@@]1(O)C[C@H](O[C@H]2C[C@H](N(C)C)[C@H](O[C@H]3C[C@H](O)[C@H](O[C@H]4CCC(=O)[C@H](C)O4)[C@H](C)O3)[C@H](C)O2)c2c(cc3c(c2O)C(=O)c2c(O)cccc2C3=O)[C@H]1C(=O)OC` [Acla A, aclarubicin A] gave a viability at 0.029 µg/mL ([1]; read-out: CV (cell viability)) of 58%, an IC50 [1, 18] of 0.029 µg/mL and a viability at 0.09 µg/mL ([2]; read-out: CV (cell viability)) of 49.1%. The IC50 [2, 18] was 0.09 µg/mL, the viability at 0.04 µg/mL ([3]; read-out: CV (cell viability)) was 52.5% and the IC50 [3, 18] was 0.04 µg/mL. It also gave a viability at 0.035 µg/mL ([4]; read-out: CV (cell viability)) of 42.1%, an IC50 [4, 18] of 0.035 µg/mL and a viability at 0.03 µg/mL ([5]; read-out: CV (cell viability)) of 42.6%. For the same molecule, the IC50 [5, 18] was 0.03 µg/mL, the viability at 0.24 µg/mL ([6]; read-out: CV (cell viability)) was 45.4% and the IC50 [6, 18] was 0.24 µg/mL. The viability at 0.08 µg/mL ([7]; read-out: CV (cell viability)) was 50.4%, the IC50 [7, 18] was 0.08 µg/mL and the viability at 0.15 µg/mL ([8]; read-out: CV (cell viability)) was 48.9%. It also gave an IC50 [8, 18] of 0.15 µg/mL, a viability at 0.25 µg/mL ([9]; read-out: CV (cell viability)) of 51.6% and an IC50 [9, 18] of 0.25 µg/mL. It also gave a viability at 0.25 µg/mL ([10]; read-out: CV (cell viability)) of 51%, an IC50 [10, 18] of 0.25 µg/mL and a viability at 0.1 µg/mL ([11]; read-out: CV (cell viability)) of 46.6%. It also gave an IC50 [11, 18] of 0.1 µg/mL, a viability at 0.1 µg/mL ([12]; read-out: CV (cell viability)) of 42.2% and an IC50 [12, 18] of 0.1 µg/mL. The viability at 0.8 µg/mL ([13]; read-out: CV (cell viability)) was 46.1%, the IC50 [13, 18] was 0.8 µg/mL and the viability at 0.25 µg/mL ([14]; read-out: CV (cell viability)) was 58%. It also gave an IC50 [14, 18] of 0.25 µg/mL, a viability at 0.25 µg/mL ([15]; read-out: CV (cell viability)) of 53.4% and an IC50 [15, 18] of 0.25 µg/mL. The viability at 0.03125 µg/mL ([16]; read-out: CV (cell viability)) was 50.6%, the IC50 [16, 18] was 0.0312 µg/mL and the viability at 0.21 µg/mL ([17]; read-out: CV (cell viability)) was 54.1%. It also gave an IC50 [17, 18] of 0.21 µg/mL.
